In article PMC9154796, “Triazoloquinoxalines-based DNA intercalators-Topo II inhibitors: design, synthesis, docking, ADMET and anti-proliferative evaluations” (Journal of Enzyme Inhibition and Medicinal Chemistry, 2022):

What was measured:
[1] = test system: HepG2; assay: MTT colorimetric anti-proliferative assay; conditions: Homo sapiens, HepG2, 72 h, read-out: IC50 HepG2
[2] = test system: HCT116; assay: MTT colorimetric anti-proliferative assay; conditions: Homo sapiens, HCT-116, 72 h, read-out: IC50 HCT116
[3] = test system: MCF-7; assay: MTT colorimetric anti-proliferative assay; conditions: Homo sapiens, MCF7, 72 h, read-out: IC50 MCF-7
[4] = target: DNA; assay: In vitro DNA/methyl green assay (DNA binding); conditions: DNA/methyl green displacement, mean ± SD of three experiments
Excerpt: The extremely potent 6e, 7b, 7c, 7e and 7g were further assessed for their DNA-binding according to the reported procedure using methyl green dye[21]^,[22]^,[49]. DNA-binding affinities results were presented as IC50 and briefed in Table 3.
Methyl green dye can bind DNA to form coloured DNA/methyl green reversible complex. These complexes at neutral pH are still stable. The methyl green is displaced from DNA upon intercalating agents addition. Colourless carbinol was formed by the addition of H2O to the dye, leading to a dramatic decrease in spectrophotometric absorbance. ΔA value (the difference between DNA/methyl green complex and free cabinol) provides the simplest means for detecting the DNA-binding affinity and relative binding strength. IC50 values were determined using the GraphPadPrism 5.0 software[21]^,[22]^,[49].

[5] = target: human Topo II (Homo sapiens, UniProt P11388); assay: In vitro topoisomerase II inhibitory activity; assay type: biochemical; conditions: supercoiled pHot1 DNA, mean ± SD of three experiments
human Topo II, sequence (P11388 whole entry): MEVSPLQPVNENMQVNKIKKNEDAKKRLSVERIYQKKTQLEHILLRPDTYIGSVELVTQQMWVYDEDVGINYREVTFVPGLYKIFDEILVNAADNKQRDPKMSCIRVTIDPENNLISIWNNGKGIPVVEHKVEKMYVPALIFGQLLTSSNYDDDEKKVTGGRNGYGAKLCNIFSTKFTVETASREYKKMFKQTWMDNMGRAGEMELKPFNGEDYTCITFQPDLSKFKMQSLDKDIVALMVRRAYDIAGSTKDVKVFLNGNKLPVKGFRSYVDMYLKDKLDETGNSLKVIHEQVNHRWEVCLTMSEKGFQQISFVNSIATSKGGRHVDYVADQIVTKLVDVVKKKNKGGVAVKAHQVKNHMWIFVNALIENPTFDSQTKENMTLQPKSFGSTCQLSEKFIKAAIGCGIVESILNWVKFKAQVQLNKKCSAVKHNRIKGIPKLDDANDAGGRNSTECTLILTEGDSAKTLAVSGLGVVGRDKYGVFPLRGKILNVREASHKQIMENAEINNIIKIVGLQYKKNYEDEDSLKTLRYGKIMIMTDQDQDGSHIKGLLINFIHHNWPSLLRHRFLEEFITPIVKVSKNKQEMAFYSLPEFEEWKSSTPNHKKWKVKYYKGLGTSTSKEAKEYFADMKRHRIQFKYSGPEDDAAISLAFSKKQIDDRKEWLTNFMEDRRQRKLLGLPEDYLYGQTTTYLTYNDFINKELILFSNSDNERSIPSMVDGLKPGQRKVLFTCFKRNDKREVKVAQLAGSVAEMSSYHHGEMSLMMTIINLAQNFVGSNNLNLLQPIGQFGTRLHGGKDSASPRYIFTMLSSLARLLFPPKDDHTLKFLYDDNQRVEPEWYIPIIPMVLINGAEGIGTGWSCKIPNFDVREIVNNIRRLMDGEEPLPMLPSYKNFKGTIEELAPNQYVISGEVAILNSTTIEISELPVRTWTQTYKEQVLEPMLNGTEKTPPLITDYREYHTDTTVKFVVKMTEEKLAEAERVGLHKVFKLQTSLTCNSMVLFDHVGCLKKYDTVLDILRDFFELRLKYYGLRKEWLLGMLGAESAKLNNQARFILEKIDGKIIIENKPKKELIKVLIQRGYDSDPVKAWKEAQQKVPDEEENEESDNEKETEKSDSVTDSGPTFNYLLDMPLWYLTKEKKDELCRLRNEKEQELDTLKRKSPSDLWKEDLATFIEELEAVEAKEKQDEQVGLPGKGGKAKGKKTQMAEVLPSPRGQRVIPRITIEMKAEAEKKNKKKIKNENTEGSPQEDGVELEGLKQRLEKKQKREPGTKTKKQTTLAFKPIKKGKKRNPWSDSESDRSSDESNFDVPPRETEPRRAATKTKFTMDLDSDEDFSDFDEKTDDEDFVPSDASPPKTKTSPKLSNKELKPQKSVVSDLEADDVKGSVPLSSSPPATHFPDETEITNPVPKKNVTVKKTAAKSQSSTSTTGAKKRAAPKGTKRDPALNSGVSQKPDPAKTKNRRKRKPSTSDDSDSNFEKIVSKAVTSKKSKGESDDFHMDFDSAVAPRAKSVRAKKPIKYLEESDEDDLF
Method: A mixture of human Topo II (2 µl), substrate super coiled pHot1 DNA (0.25 µg), 50 µg/ml test compound (2 µl), and assay buffer (4 µl). […] Then, the DNA was run for 1–2 h on 1% agarose gel in BioRad gel electrophoresis system followed by staining with GelRedTM stain for 2 h and destained for 15 min with TAE buffer. The gel was imaged via BioRad’s Gel DocTMEZ system. Both supercoiled and linear strands of DNA were incorporated into the gel as markers for DNA-Topo II intercalators. By using the GraphPad Prism version 5.0, the values of IC50 were calculated. Each reaction was performed in duplicate, and at least three independent determinations of each IC50 were made.

[6] = test system: VERO normal cells; assay: Cytotoxicity against VERO normal cell lines; assay type: cell-based; conditions: for IC50: Chlorocebus sabaeus, VERO normal cells, mean ± SD of three experiments; for fold safer in VERO normal cells compared to breast cancer cell lines (MCF-7): VERO versus MCF-7
Method: The cytotoxicity of these compounds against the cancer cell lines was from 3.41 to 9.51 µM. Derivatives 7b, 7c, 7e and 7g are respectively, 7.88, 10.81, 16.16 and 4.50 fold safer in VERO normal cells compared to breast cancer cell lines (MCF-7, the most sensitive cells).
The cytotoxicity assays were performed at Al-Azhar University, Pharmacology & Toxicology Department, Cairo, Egypt. Cancer cells from different cancer cell lines HCT-116, HepG2 and MCF-7, were purchased from ATCC, Manassas, USA and grown on the appropriate growth medium Roswell Park Memorial Institute medium (RPMI 1640) supplemented with […] of streptomycin, 100 units/mL of penicillin and 10% of heat-inactivated foetal bovine serum in a humidified, 5% (v/v) CO2 atmosphere at 37 °C Cytotoxicity assay by 3-[4,5-dimethylthiazole-2-yl]-2,5-diphenyltetrazolium bromide (MTT).
Cancer cell lines were trypsinized, counted and seeded into 96-well microtiter plates.

[7] = test system: melanoma A375 cancer cells; set-up: method as in PMID 18513976; conditions: cited from earlier work

SMILES	melting point [°C]	IC50 [1] [µM]	IC50 [2] [µM]	IC50 [3] [µM]	IC50 [4] [µM]	IC50 [5] [µM]	IC50 [6] [µM]	fold safer in VERO normal cells compared to breast cancer cell lines (MCF-7) [6] [fold]	fold more active than fotemustine [7] [fold]	fold more active than imiquimod [7] [fold]
CC(=O)c1ccc(Nc2nc3ccccc3n3cnnc23)cc1 [Compound 5, 1-{4-([1,2, 4]Triazolo[4,3-a]quinoxalin-4-ylamino)phenyl}ethan-1-one]	171 to 172	12.7 ± 0.13	11.4 ± 1.4	10.3 ± 1.28						
O=C(C=Cc1ccccc1)c1ccc(Nc2nc3ccccc3n3cnnc23)cc1 [Compound 6a, 1-{4-([1,2, 4]Triazolo[4,3-a]quinoxalin-4-ylamino)phenyl}-3-phenylprop-2-en-1-one]	275 to 277	14.06 ± 0.13	11.2 ± 1.2	10.1 ± 1.31						
O=C(C=Cc1ccc(Cl)cc1)c1ccc(Nc2nc3ccccc3n3cnnc23)cc1 [Compound 6b, 1-{4-([1,2, 4]Triazolo[4,3-a]quinoxalin-4-ylamino)phenyl}-3–(4-chlorophenyl)prop-2-en-1-one]	240 to 243	35.2 ± 3.3	31.2 ± 1.4	25.8 ± 2.8						
O=C(C=Cc1ccc(F)cc1)c1ccc(Nc2nc3ccccc3n3cnnc23)cc1 [Compound 6c, 1-{4-([1,2, 4]Triazolo[4,3-a]quinoxalin-4-ylamino)phenyl}-3–(4-fluorophenyl)prop-2-en-1-one]	247 to 249	11.3 ± 1.1	9.53 ± 0.93	8.61 ± 0.62						
O=C(C=Cc1c(Cl)cccc1Cl)c1ccc(Nc2nc3ccccc3n3cnnc23)cc1 [Compound 6d, 1-{4-([1,2, 4]Triazolo[4,3-a]quinoxalin-4-ylamino)phenyl}-3–(2,6-dichlorophenyl)prop-2-en-1-one]	260 to 263	16.9 ± 1.4	19.4 ± 1.7	14.6 ± 1.57						
Cc1ccc(C=CC(=O)c2ccc(Nc3nc4ccccc4n4cnnc34)cc2)cc1 [Compound 6e, 1-{4-([1,2, 4]Triazolo[4,3-a]quinoxalin-4-ylamino)phenyl}-3-(p-tolyl)prop-2-en-1-one]	245 to 247	10.9 ± 1.9	10.2 ± 1.7	9.95	38 ± 0.4	1.27 ± 0.4				
COc1ccc(C=CC(=O)c2ccc(Nc3nc4ccccc4n4cnnc34)cc2)cc1 [Compound 6f, 1-{4-([1,2, 4]Triazolo[4,3-a]quinoxalin-4-ylamino)phenyl}-3–(4-methoxyphenyl)prop-2-en-1-one]	250 to 253	18 ± 1.6	16.4 ± 1.7	13.2 ± 1.39						
O=C(C=Cc1cccc([N+](=O)[O-])c1)c1ccc(Nc2nc3ccccc3n3cnnc23)cc1 [Compound 6g, 1-{4-([1,2, 4]Triazolo[4,3-a]quinoxalin-4-ylamino)phenyl}-3–(3-nitrophenyl)prop-2-en-1-one]	257 to 259	17.2 ± 1.5	13.7 ± 1.7	12.2 ± 1.03						
O=C(C=Cc1ccc([N+](=O)[O-])cc1)c1ccc(Nc2nc3ccccc3n3cnnc23)cc1 [Compound 6h, 1-{4-([1,2, 4]Triazolo[4,3-a]quinoxalin-4-ylamino)phenyl}-3–(4-nitrophenyl)prop-2-en-1-one]	261 to 263	15.6 ± 1.2	12.4 ± 1.1	11.7 ± 1.68						
Clc1ccc(C2CC(c3ccc(Nc4nc5ccccc5n5cnnc45)cc3)=NN2)cc1 (stereo not shown) [Compound 7b, N-{4-[5–(4-Chlorophenyl)-4,5-dihydro-1H-pyrazol-3-yl]phenyl}-[1,2, 4]triazolo[4,3-a]quinoxalin-4-amine]		7.46 ± 0.13	6.9 ± 0.95	5.88 ± 0.74	32.5 ± 3	1.05 ± 0.4	46.32 ± 0.2	7.88		
Fc1ccc(C2CC(c3ccc(Nc4nc5ccccc5n5cnnc45)cc3)=NN2)cc1 (stereo not shown) [Compound 7c, N-{4-[5–(4-Fluorophenyl)-4,5-dihydro-1H-pyrazol-3-yl]phenyl}-[1,2, 4]triazolo[4,3-a]quinoxalin-4-amine]		6.33 ± 0.14	6.22 ± 0.63	4.45 ± 0.14	31.2 ± 2.9	0.94 ± 0.4	48.11 ± 0.2	10.81		
Cc1ccc(C2CC(c3ccc(Nc4nc5ccccc5n5cnnc45)cc3)=NN2)cc1 (stereo not shown) [Compound 7e, N-{4-[5-(p-Tolyl)-4,5-dihydro-1H-pyrazol-3-yl]phenyl}-[1,2, 4]triazolo[4,3-a]quinoxalin-4-amine]		6.15 ± 1.2	5.75 ± 0.37	3.41 ± 0.43	29.1 ± 2.2	0.89 ± 0.4	55.09 ± 0.16	16.16		
O=[N+]([O-])c1ccc(C2CC(c3ccc(Nc4nc5ccccc5n5cnnc45)cc3)=NN2)cc1 (stereo not shown) [Compound 7g, N-{4-[5–(4-Nitrophenyl)-4,5-dihydro-1H-pyrazol-3-yl]phenyl} -[1,2, 4]triazolo[4,3-a]quinoxalin-4-amine]		9.51 ± 1.1	8.96 ± 0.37	8.62 ± 0.95	36.5 ± 0.4	1.22 ± 0.4	38.77 ± 0.16	4.50		
COc1cccc2c1C(=O)c1c(O)c3c(c(O)c1C2=O)C[C@@](O)(C(=O)CO)C[C@@H]3O[C@H]1C[C@H](N)[C@H](O)[C@H](C)O1 [Doxorubicin, reference compound]				6.75 ± 0.4	31.3 ± 1.8					
CNc1nc2ccccc2n2c(CCc3ccccc3)cnc12 [EAPB0203]									110	45

Continued, in another order:

melting point [°C]	IC50 [1] [µM]	IC50 [2] [µM]	IC50 [3] [µM]	SMILES	IC50 [4] [µM]	IC50 [5] [µM]	IC50 [6] [µM]	fold safer in VERO normal cells compared to breast cancer cell lines (MCF-7) [6] [fold]	fold more active than fotemustine [7] [fold]	fold more active than imiquimod [7] [fold]
150 to 152	20.3 ± 1.9	18.2 ± 1.6	15.4 ± 1.42	c1ccc(C2CC(c3ccc(Nc4nc5ccccc5n5cnnc45)cc3)=NN2)cc1 (stereo not shown) [Compound 7a, N-{4–(5-Phenyl-4,5-dihydro-1H-pyrazol-3-yl)phenyl}-[1,2, 4]triazolo[4,3-a]quinoxalin-4-amine]						
176 to 178	12 ± 1.2	10.2 ± 0.22	7.56 ± 0.92	Clc1cccc(Cl)c1C1CC(c2ccc(Nc3nc4ccccc4n4cnnc34)cc2)=NN1 (stereo not shown) [Compound 7d, N-{4-[5–(2,6-Dichlorophenyl)-4,5-dihydro-1H-pyrazol-3-yl]phenyl}-[1,2, 4]triazolo[4,3-a]quinoxalin-4-amine]						
195 to 197	17.3 ± 1.9	16.2 ± 1.6	14.5 ± 1.03	O=[N+]([O-])c1cccc(C2CC(c3ccc(Nc4nc5ccccc5n5cnnc45)cc3)=NN2)c1 (stereo not shown) [Compound 7f, N-{4-[5–(3-Nitrophenyl)-4,5-dihydro-1H-pyrazol-3-yl]phenyl} -[1,2, 4]triazolo[4,3-a]quinoxalin-4-amine]						
